Laboratory results from publication PMC6511888, “Synthesis, Biological Evaluation, and Molecular Modeling Studies of New Thiadiazole Derivatives as Potent P2X7 Receptor Inhibitors” (Frontiers in Chemistry, 2019).

Experiments:
[1] = biological target: T1, P2X7R (Mus musculus, UniProt Q9Z1M0); test: Whole-cell patch clamp, ATP-induced ionic currents in peritoneal macrophages; assay type: cell-based; conditions: fixed 500 nM 9f; ATP 100 μM to 25 mM; whole-cell configuration
T1 construct: plated for 24 h before dye uptake assays, whole-cell patch clamp experiments, and IL-1β release assays; endogenous in cells; host or cells: mouse (Swiss Webster) peritoneal macrophages
T1 sequence (Q9Z1M0 1-595): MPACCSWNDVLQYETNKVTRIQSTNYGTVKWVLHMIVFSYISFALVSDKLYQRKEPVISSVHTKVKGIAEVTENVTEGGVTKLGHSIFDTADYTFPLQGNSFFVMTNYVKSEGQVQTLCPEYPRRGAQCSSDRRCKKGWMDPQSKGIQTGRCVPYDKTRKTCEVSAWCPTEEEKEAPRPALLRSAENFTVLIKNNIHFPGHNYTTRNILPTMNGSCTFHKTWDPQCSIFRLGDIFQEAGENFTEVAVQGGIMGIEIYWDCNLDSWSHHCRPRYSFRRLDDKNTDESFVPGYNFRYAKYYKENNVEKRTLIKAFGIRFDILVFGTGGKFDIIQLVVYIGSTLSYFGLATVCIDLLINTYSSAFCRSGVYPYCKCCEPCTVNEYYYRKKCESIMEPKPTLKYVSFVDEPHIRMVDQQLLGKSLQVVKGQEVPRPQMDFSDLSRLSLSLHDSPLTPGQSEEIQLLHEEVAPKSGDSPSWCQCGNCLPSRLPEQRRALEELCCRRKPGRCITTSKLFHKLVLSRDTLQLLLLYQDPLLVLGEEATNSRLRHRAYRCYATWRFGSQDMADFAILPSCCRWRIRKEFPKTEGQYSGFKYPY
Method: The whole-cell configuration was used in peritoneal macrophages as previously described (Faria et al., [2005]). All the experiments used bath and pipette solutions with a series resistance set as 6–11 MΩ. Ionic currents with amplitudes < 1,500 pA were not compensated; however, ionic currents above this level were compensated by 88%. The cell capacitance for peritoneal macrophages was (19 ± 1 pF; n = 86), and the recordings were obtained at a holding potential of −60 mV at 37°C.
The saline composition was as follows (in mM): 150 NaCl, 5 KCl, 1 MgCl2, 1 CaCl2, and 10 HEPES (pH 7.4) for the bath solution and 150 KCl, 5 NaCl, 1 MgCl2, 10 HEPES, and 0.1 EGTA (pH 7.4) for the pipette solution (Faria et al., [2018]).
[…] A perfusion chamber (RC-24 chamber, Warner Instrument Corp) operating at a rate of 1 ml/min was used in all experiments (Faria et al., [2018]).

[2] = tested on: P2X3R; test: α,β-meATP-induced [Ca2+]i shift; assay type: cell-based; conditions: 100 μM
Method: Mouse peritoneal macrophages, PC12 cells, J774 cells, and HEPG2 cells were analyzed by fluorescence microscopy to measure the intracellular Ca^2+ concentrations ([Ca^2+]i). Cells were incubated with 2 μM Fura-2-AM (Molecular Probes) for 30 min, and the [Ca^2+]i mobilization was measured in the F340/F380 ratios with a FlexStation 3 multimode microplate reader (Molecular Devices). Cells were plated in translucent 96-well plates (BD Falcon) for 15 min and then washed and incubated in a saline solution with 150 NaCl, 5 KCl, 1 MgCl2, 1 CaCl2, and 10 HEPES (pH 7.4) for 30 min before measurements of [Ca^2+]i. The Ca^2+ influx was induced by stimulating cells with P2 receptor agonists. P2 receptor antagonists were added 10 min before P2 receptor agonist addition. […] Ionomycin was considered a positive control, and the other recordings were normalized in relation to the AUC.

[3] = tested on: ATP-induced paw edema; test: ATP-induced paw edema in mice; assay type: in vivo, mouse; conditions: 9f 0.001–1 mg/kg intraperitoneally 1 h before ATP, edema measured after 30 min
Method: (§1) Our protocols using Swiss Webster mice 4–5 weeks old adhered to the Ethical Principles in Animal Experimentation adopted by the Brazilian College of Animal Experimentation and approved by the FIOCRUZ Research Ethics Committee (Faria et al., [2018]) (number LW-5814). Mouse paw edema was stimulated with carrageenan (300 μg/paw) saline suspension for 60 min or ATP (10 mg/paw) for 30 min. Treatment with diclofenac (100 μg/kg), oxidized ATP (100 μg/kg), and analog 9f (0.001–1 mg/kg) was intraperitoneally administered 60 min prior to the […] administration of carrageenan or ATP. A plethysmometer (UGO Basil, Italy) was used to measure the edema before inductor injection, and the relative paw edema increased after carrageenan or ATP action.

[4] = tested on: carrageenan-induced paw edema; test: Carrageenan-induced paw edema in mice; assay type: in vivo, mouse; conditions: 9f 0.001–1 mg/kg intraperitoneally 1 h before carrageenan, edema measured after 60 min
Method: as §1

EC50 of the ATP dose–response curve with fixed inhibitor vs ATP alone [1]: higher
SMILES: CCOC(=O)c1cnn(-c2nnc(-c3ccccc3Cl)s2)c1N [Compound 9f]
Effect on activity of P2X3R agonist α,β-meATP [2]: did not reduce
ATP-induced paw edema [3]: dose-dependently decreased
Carrageenan-induced paw edema [4]: dose-dependently decreased
